Laboratory results: patent publication US20250041284A1, “TREATMENT OF NEUROLOGICAL DISORDERS” (Praxis Precision Medicines, Inc., priority 2022, published 2025)
Entries after “also recorded” stand apart in the source; their conditions may differ.

What was measured:
human NaV1.6 [1] = target: T1, human NaV1.6 (Homo sapiens, UniProt Q9UQD0); experiment: Peak INa use-dependent block (UDB-10 Hz), automated patch clamp in HEK cells; format: cell-based
T1 construct: HEK-293 cell lines stably expressing human NaV1.6 (NP_055006) were used; expressed in transfected cells

human NaV1.6 [2] = target: T1, human NaV1.6; experiment: Peak INa tonic block (TB), automated patch clamp in HEK cells; format: cell-based
in vivo = conditions: rat
[3] = Spontaneous locomotor activity (sLMA) (Example 4); format: in vivo, mouse; conditions: male, CD-1, mouse, in vivo, po, 30 min post-dose, 30-minute test
Experimental: (§1) Food and water were available ad libitum.
(§2) Dosing solutions were prepared on each experiment day. […] All solutions were protected from light. Samples from dosing solutions were stored at 4° C.
(§3) The sLMA test was carried out over two days. Half of the mice from each treatment group was tested on each day.
(§4) Animals were p.o. administered Compound 1 or 35% HPBCD (vehicle) 30 minutes prior to the sLMA test.
(§5) All mice were anesthetized with CO2. […] The supernatant plasma was pipetted into Eppendorf tubes.
(§6) An aliquot of 20 μL unknown sample, calibration standard, quality control, dilute quality control, single blank and double blank sample was added to a 1.5 mL tube. Each sample (except the double blank) was quenched with 300 μL IS solution (double blank sample was quenched with 300 μL ACN), and then the mixture was vortex-mixed well for at least 15 seconds and centrifuged for 15 minutes at 12000 g, 4° C. 65 μL supernatant was transferred to a 96-well plate and centrifuged for 5 minutes at 3220 g, 4° C. Then 3 μL supernatant was directly injected for LC-MS/MS analysis.
(§7) Brain homogenate was prepared by homogenizing brain tissue with 5 volumes (w:v) of cold 15 mM PBS/MeOH (V:V, 2:1). An aliquot of 40 μL unknown sample, calibration standard, quality control, dilute quality control, single blank and double blank sample was added to a 1.5 mL tube. Each sample (except the double blank) was quenched with 600 μL IS solution (double blank sample was quenched with 600 μL ACN), and then the mixture was vortex-mixed well for at least 15 seconds and centrifuged for 15 minutes at 12000 g, 4° C. 65 μL supernatant was transferred to a 96-well plate and centrifuged for 5 minutes at 3220 g, 4° C. Then 3 μL of the supernatant was directly injected for LC-MS/MS analysis.

[4] = test system: spontaneous locomotor activity in male CD-1 mice; experiment: Spontaneous locomotor activity (sLMA) (Example 4); format: in vivo, mouse
Experimental: as §1, §2, §3, §4, §5, §6, §7

T1 sequence (Q9UQD0 whole entry): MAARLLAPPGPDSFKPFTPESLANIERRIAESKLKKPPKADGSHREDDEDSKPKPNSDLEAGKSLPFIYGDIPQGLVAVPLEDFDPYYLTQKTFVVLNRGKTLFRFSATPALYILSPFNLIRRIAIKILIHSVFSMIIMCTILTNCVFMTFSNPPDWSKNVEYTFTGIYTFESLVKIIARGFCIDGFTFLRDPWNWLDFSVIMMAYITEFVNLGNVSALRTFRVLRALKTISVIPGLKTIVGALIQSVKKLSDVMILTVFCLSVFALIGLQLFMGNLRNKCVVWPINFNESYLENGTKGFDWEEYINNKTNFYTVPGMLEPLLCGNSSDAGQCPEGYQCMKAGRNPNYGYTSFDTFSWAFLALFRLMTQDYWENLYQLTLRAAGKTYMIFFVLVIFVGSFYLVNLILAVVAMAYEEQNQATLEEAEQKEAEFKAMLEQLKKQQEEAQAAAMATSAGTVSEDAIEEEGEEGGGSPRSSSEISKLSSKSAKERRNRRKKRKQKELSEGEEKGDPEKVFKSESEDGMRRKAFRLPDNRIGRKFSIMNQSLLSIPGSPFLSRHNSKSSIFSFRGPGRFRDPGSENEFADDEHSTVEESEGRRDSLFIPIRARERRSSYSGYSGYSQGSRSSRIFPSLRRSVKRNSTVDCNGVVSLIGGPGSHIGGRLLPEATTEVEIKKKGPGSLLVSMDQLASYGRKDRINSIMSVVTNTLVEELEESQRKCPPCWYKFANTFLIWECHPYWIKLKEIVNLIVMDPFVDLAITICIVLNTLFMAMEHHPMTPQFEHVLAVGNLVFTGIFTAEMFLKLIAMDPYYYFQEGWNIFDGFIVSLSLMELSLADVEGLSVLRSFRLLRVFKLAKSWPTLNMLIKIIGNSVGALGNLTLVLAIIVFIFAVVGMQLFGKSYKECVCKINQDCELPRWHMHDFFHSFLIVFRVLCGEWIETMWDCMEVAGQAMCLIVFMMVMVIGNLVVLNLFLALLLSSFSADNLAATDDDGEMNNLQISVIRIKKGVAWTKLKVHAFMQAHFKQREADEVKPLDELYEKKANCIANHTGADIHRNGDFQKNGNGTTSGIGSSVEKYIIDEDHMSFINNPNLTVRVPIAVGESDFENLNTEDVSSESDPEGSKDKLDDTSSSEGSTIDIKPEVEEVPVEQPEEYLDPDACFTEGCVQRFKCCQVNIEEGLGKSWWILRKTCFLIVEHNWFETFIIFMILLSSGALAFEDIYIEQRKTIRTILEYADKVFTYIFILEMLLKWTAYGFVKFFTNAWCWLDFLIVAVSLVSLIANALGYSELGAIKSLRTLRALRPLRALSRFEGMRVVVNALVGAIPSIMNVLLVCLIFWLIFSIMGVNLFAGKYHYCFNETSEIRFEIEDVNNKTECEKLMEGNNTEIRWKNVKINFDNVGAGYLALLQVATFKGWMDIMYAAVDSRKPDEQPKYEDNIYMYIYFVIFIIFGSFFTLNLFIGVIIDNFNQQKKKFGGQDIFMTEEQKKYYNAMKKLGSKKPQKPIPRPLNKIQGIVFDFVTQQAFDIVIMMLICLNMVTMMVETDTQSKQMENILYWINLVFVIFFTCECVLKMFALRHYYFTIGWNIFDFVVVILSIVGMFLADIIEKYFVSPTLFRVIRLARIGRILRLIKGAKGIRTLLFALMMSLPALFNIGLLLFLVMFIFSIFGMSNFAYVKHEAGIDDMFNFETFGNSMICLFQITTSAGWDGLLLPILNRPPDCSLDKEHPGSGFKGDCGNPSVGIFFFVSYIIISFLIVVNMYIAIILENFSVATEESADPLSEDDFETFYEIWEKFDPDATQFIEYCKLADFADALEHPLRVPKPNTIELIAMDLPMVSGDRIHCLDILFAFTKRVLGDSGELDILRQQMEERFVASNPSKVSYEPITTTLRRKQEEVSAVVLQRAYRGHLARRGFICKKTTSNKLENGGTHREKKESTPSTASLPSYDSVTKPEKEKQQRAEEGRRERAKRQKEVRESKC

With CCOC(F)(F)c1nnc2ccc(-c3cnc(OCC(F)(F)F)c(F)c3)cn12 [Compound 1] the Emax (human NaV1.6 [1]; HEK293, fitted maximum of Hill equation, read-out: Peak INa UDB-10 Hz Max effect) was 100%, the “UDB preference to TB” value (human NaV1.6 [1]; TB IC50 / UDB IC50) was 44 × and the “Ratio to Pers. INa (Peak INa UDB-10 Hz)” value (human NaV1.6 [1]; UDB IC50 / persistent INa IC50) was 1.6. The “activity dependent block of peak INa” value (human NaV1.6 [1]; in words, FIGS. 7A-7C) was “enhanced activity dependent inhibition of peak INa”, the “Peak INa UDB-10 Hz Hill slope” value (human NaV1.6 [1]; use-dependent block 10 Hz) was “(0.7)” and the IC50 (human NaV1.6 [1]; use-dependent block, Vm -120 mV, 10 Hz) was 0.2 µM. For the same compound, the “Ratio to Pers. INa (Peak INa TB)” value (human NaV1.6 [2]; peak INa TB IC50 / persistent INa IC50) was 68, the “Peak INa TB Hill slope” value (human NaV1.6 [2]; tonic block) was “(1.0)” and the IC50 (human NaV1.6 [2]; tonic block, Vm -120 mV, 0.2 Hz) was 8.71 µM. For the same compound, the AUC(0-inf) (in vivo) was 7500 ng·h/mL, the TD50 [3] was 10.3 mg/kg and the “total traveling distance in the 30-minute sLMA test” value ([4]; 10 and 20 mg/kg p.o.) was “significantly reduced total traveling distance; also recorded: significantly reduced locomotor activity”. The “sLMA TD50” value ([4]; p.o., 30 min post-dose, 30-minute test) was 10.27 mg/kg and the “sLMA plasma TC50” value ([4]; plasma concentration) was 1123 ng/g.
